Results from ChEMBL document CHEMBL1201862, “PubChem BioAssay data set” (2004).
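Test compounds were applied to cells in 96-well plates for 48 hours at 5 doses. GI50 is the concentration that inhibits growth by half.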 Activity calls are given as the source filed them. Cut-off read from the data, not from the text of the source: active = GI50 up to about 1.1 µM and inactive = higher.

Legend:
Test in all cases: DTP human tumour cell line panel, 48 h
MOLT-4 = test system: MOLT-4
SK-MEL-28 = test system: SK-MEL-28
SR = test system: SR
DU-145 = test system: DU-145
TK-10 = test system: TK-10
SNB-19 = test system: SNB-19
Hs-578T = test system: Hs-578T
NCI-H226 = test system: NCI-H226
PC-3 = test system: PC-3
KM12 = test system: KM12
HCT-15 = test system: HCT-15
OVCAR-4 = test system: OVCAR-4
UO-31 = test system: UO-31
SN12C = test system: SN12C
SW-620 = test system: SW-620
SK-MEL-2 = test system: SK-MEL-2
BT-549 = test system: BT-549
OVCAR-3 = test system: OVCAR-3
RPMI-8226 = test system: RPMI-8226
M14 = test system: M14

Measured: GI50

COc1ccc([C@@]23Oc4cc(OC)cc(OC)c4[C@]2(O)[C@H](O)[C@H](C(=O)N(C)C)[C@H]3c2ccccc2)cc1 [ROCAGLAMIDE]
active: MOLT-4 0.00192 µM | SK-MEL-28 0.00689 µM | SR 0.00162 µM | DU-145 0.00809 µM | TK-10 0.0146 µM | SNB-19 0.267 µM | Hs-578T 0.00875 µM | NCI-H226 0.0113 µM | PC-3 0.00836 µM | KM12 0.00294 µM | OVCAR-4 0.0206 µM | UO-31 0.0158 µM | SN12C 0.00815 µM | SW-620 0.00299 µM | SK-MEL-2 0.0197 µM | BT-549 0.0583 µM | OVCAR-3 0.056 µM | RPMI-8226 0.00555 µM | M14 0.00327 µM
0.0176 µM: HCT-15

COC(=O)C1CC2(C)C=CC1N(C(=O)OCc1ccccc1)C2 (stereo not given)
94 µM: HCT-15
inactive: MOLT-4 31.6 µM | SK-MEL-28 > 100 µM | SR 37.6 µM | DU-145 > 100 µM | TK-10 > 100 µM | SNB-19 > 100 µM | Hs-578T 86.5 µM | NCI-H226 > 100 µM | PC-3 87.7 µM | KM12 52.1 µM | OVCAR-4 40 µM | UO-31 69.5 µM | SN12C > 100 µM | SW-620 > 100 µM | SK-MEL-2 > 100 µM | BT-549 54.1 µM | OVCAR-3 55.8 µM | RPMI-8226 48 µM | M14 63.8 µM

O=C(O)CC(CC(=O)O)C(=O)O [TRICARBALLYLIC ACID]
> 100 µM: HCT-15
inactive: MOLT-4 > 100 µM | SK-MEL-28 > 100 µM | SR > 100 µM | DU-145 > 100 µM | TK-10 > 100 µM | SNB-19 > 100 µM | Hs-578T > 100 µM | NCI-H226 > 100 µM | PC-3 > 100 µM | KM12 > 100 µM | OVCAR-4 > 100 µM | UO-31 > 100 µM | SN12C > 100 µM | SW-620 > 100 µM | SK-MEL-2 > 100 µM | BT-549 > 100 µM | OVCAR-3 > 100 µM | RPMI-8226 > 100 µM | M14 > 100 µM

N#CC1=C(S)N(C2OC(CO)C(O)C(O)C2O)C(c2ccccc2)=CC1c1cccs1 (stereo not given)
32.7 µM: HCT-15
inactive: MOLT-4 22.7 µM | SK-MEL-28 21.1 µM | SR 23 µM | DU-145 > 10 µM | TK-10 29 µM | SNB-19 > 10 µM | Hs-578T 23.4 µM | NCI-H226 16.6 µM | PC-3 15.1 µM | KM12 18.8 µM | OVCAR-4 33.8 µM | UO-31 48.8 µM | SN12C 14.7 µM | SW-620 16.6 µM | SK-MEL-2 22.5 µM | BT-549 16.1 µM | OVCAR-3 27.9 µM | RPMI-8226 26.3 µM | M14 33.3 µM

CCOC(=O)C(N)CSC(=O)NC (stereo not given)
63 µM: HCT-15
inactive: MOLT-4 55.1 µM | SK-MEL-28 136 µM | SR 45.1 µM | DU-145 268 µM | TK-10 247 µM | SNB-19 251 µM | Hs-578T 204 µM | NCI-H226 247 µM | PC-3 132 µM | KM12 175 µM | OVCAR-4 219 µM | UO-31 259 µM | SN12C 71.6 µM | SW-620 80.4 µM | SK-MEL-2 63.2 µM | BT-549 121 µM | OVCAR-3 96.6 µM | RPMI-8226 20.1 µM | M14 67.9 µM

COc1cccc2c1C(=O)c1c(O)c3c(c(O)c1C2=O)C[C@@](O)(/C(C)=N/NC(=O)c1ccc(Cl)c(Cl)c1)C[C@@H]3OC1CC(N)C(O)C(C)O1 (stereo not given in full)
0.219 µM: HCT-15
active: MOLT-4 < 0.01 µM | SK-MEL-28 0.0676 µM | SR < 0.01 µM | DU-145 0.251 µM | TK-10 0.225 µM | SNB-19 0.0792 µM | Hs-578T 0.528 µM | NCI-H226 0.092 µM | PC-3 0.411 µM | KM12 0.205 µM | OVCAR-4 0.0668 µM | UO-31 1.08 µM | SN12C 0.101 µM | SW-620 0.0923 µM | SK-MEL-2 0.718 µM | BT-549 0.505 µM | OVCAR-3 0.226 µM | RPMI-8226 0.0269 µM | M14 0.148 µM

Cc1cc(O)c(O)c(Oc2cc(C)cc(O)c2O)c1
inactive: MOLT-4 10 µM | SK-MEL-28 32.2 µM | SR 6.7 µM | DU-145 23.3 µM | TK-10 17.1 µM | SNB-19 35.9 µM | Hs-578T 48.4 µM | NCI-H226 18.4 µM | PC-3 21.9 µM | KM12 22 µM | OVCAR-4 13.4 µM | UO-31 18.5 µM | SN12C 13.2 µM | SW-620 16.9 µM | SK-MEL-2 21.5 µM | BT-549 20.1 µM | OVCAR-3 4.48 µM | RPMI-8226 31.1 µM | M14 14.3 µM
9.14 µM: HCT-15

CC1=C(C(=O)OC(C)C)C(c2ccccc2C(F)(F)F)C(C(=O)OC(CO[N+](=O)[O-])CO[N+](=O)[O-])=C(C)N1 (stereo not given)
inactive: MOLT-4 2.17 µM | SK-MEL-28 16.8 µM | SR 5 µM | DU-145 16.6 µM | TK-10 23.9 µM | SNB-19 14.7 µM | Hs-578T 15.8 µM | NCI-H226 13.7 µM | PC-3 2.56 µM | KM12 5.14 µM | OVCAR-4 5.3 µM | UO-31 1.95 µM | SN12C 4.09 µM | SW-620 5.79 µM | SK-MEL-2 14.1 µM | BT-549 5.11 µM | OVCAR-3 9.31 µM | RPMI-8226 3.94 µM | M14 6.98 µM
7.96 µM: HCT-15

CC1SCCc2nc3ccccc3n21 (stereo not given)
> 100 µM: HCT-15
inactive: MOLT-4 > 100 µM | SK-MEL-28 > 100 µM | SR > 100 µM | DU-145 > 100 µM | TK-10 > 100 µM | SNB-19 > 100 µM | Hs-578T > 100 µM | NCI-H226 > 100 µM | PC-3 > 100 µM | KM12 > 100 µM | OVCAR-4 > 100 µM | UO-31 > 100 µM | SN12C > 100 µM | SW-620 > 100 µM | SK-MEL-2 > 100 µM | BT-549 > 100 µM | OVCAR-3 > 100 µM | RPMI-8226 > 100 µM | M14 > 100 µM

COCCNC1CCC(=O)c2[nH]c3ccccc3c21 (stereo not given)
inactive: MOLT-4 > 100 µM | SK-MEL-28 > 100 µM | SR > 100 µM | DU-145 > 100 µM | TK-10 > 100 µM | SNB-19 > 100 µM | Hs-578T 83.9 µM | NCI-H226 > 100 µM | PC-3 > 100 µM | KM12 > 100 µM | OVCAR-4 > 100 µM | UO-31 65.8 µM | SN12C > 100 µM | SW-620 > 100 µM | SK-MEL-2 > 100 µM | BT-549 > 100 µM | OVCAR-3 40.2 µM | RPMI-8226 > 100 µM | M14 > 100 µM
> 100 µM: HCT-15
